This is an account of results in publication PMC11396751, “Design, Synthesis, and Anticancer Activity of Novel Enmein-Type Diterpenoid Derivatives Targeting the PI3K/Akt/mTOR Signaling Pathway” (Molecules, 2024).

Test [1] relates to A549 cells. The test is described as follows: MTT anti-proliferative assay, A549. The test is classed as cell-based, human. Conditions: for IC50: Homo sapiens, A549, MTT, 48 h, means ± SD of three experiments. The protocol:
(§1) A series of novel enmein-type diterpenoid derivatives, 5a–m, were synthesized by introducing a side chain containing a carbamate moiety at the C-6 position of compound 4. The anticancer activities of 5a–m were tested against three human cancer cell lines and one human normal cell line by MTT assay.
(§2) Human non-small cell lung cancer cell lines (A549), human liver cancer cell lines (HepG2), human breast cancer cell lines (MCF-7), and human normal cell lines (L-02) were purchased from the cell bank of the Chinese Academy of Sciences. All cells were placed in RPMI-1640 medium (added 10% fetal bovine serum, […]) and cultured in an aseptic environment with 5% CO2 at 37 °C.
(§3) All derivatives were evaluated for their anti-proliferative activities against three cancer cell lines and one normal cell line by MTT assay. The cells in the logarithmic growth phase were inoculated into 96-well plates (3 × 10^3 cells/well) and incubated for 48 h in a sterile environment with 5% CO2 at 37 °C to make them attach via cell adhesion; then, the cells were co-incubated with target compounds for 48 h. After that, MTT solution (10 µL/well) was added to the cell culture medium to continue incubation for 4 h, following which the medium was replaced with DMSO (150 µL/well). The absorbance values at 490 nm were determined using an enzyme meter (Safire 2, Tecan, Männedorf, Switzerland) and further converted to half-inhibitory concentration values of these compounds.

The test system of test [2] is HepG2 cells. The test is described as follows: MTT anti-proliferative assay, HepG2. The test is classed as cell-based, human. Conditions: for IC50: Homo sapiens, HepG2, MTT, 48 h, means ± SD of three experiments. Here is the method:
as §1, §2, §3

In test [3] the test system is MCF-7 cells. The test is described as follows: MTT anti-proliferative assay, MCF-7. It counts as cell-based. To be noted: Homo sapiens, MCF7, 48 h, means ± SD of three experiments. Here is the method: as §1, §2, §3
Test [4] deals with L-02 cells. The test is described as follows: MTT anti-proliferative assay, normal L-02 cells. The test is classed as cell-based. To be noted: means ± SD of three experiments. The protocol:
as §1, §2, §3

As to `C=C1C(=O)C23C(=O)OC45CCC(C)(C)C6C(OC(=O)N(C)C)OCC64C2CCC1C3O5` (single isomer, unassigned; ent-6) [Compound 5a, ent-6β,14α-Dihydroxy-(1,7–1,14)-epoxy-7,15-dioxo-6,20-hemiketal-6,7-seco-16-kaurene-6β-yl dimethylcarbamate], the IC50 in test [1] is 14.7 ± 1.54 µM; in test [2], 17.1 ± 1.39 µM; in test [3] it was 30.7 ± 1.16 µM; in test [4] (Homo sapiens, L02, 48 h) it was above 50 µM.
In the case of `C=C1C(=O)C23C(=O)OC45CCC(C)(C)C6C(OC(=O)CCC(=O)NCc7ccc(Cl)cc7)OCC64C2CCC1C3O5` (single isomer, unassigned; ent-6) [Compound 7f, ent-6β,14α-Dihydroxy-(1,7–1,14)-epoxy-7,15-dioxo-6,20-hemiketal-6,7-seco-16-kaurene-6β-yl 4-((4-chlorobenzyl)amino)-4-oxobutanoate], the IC50 was 7.38 ± 0.96 µM in test [1]; 8.61 ± 1.14 µM in test [2]; 8.2 ± 1.21 µM in test [3]; above 50 µM in test [4] (Homo sapiens, L02, 48 h). The “anticancer activity in words, HepG2” value in test [2] (HepG2 cells) is on record as “low micro-molar-level anticancer activities”.
Turning to `C=C1C(=O)C23C(=O)OC45CCC(C)(C)C6C(OC(=O)N(CCCl)CCCl)OCC64C2CCC1C3O5` (single isomer, unassigned; ent-6) [Compound 5d, ent-6β,14α-Dihydroxy-(1,7–1,14)-epoxy-7,15-dioxo-6,20-hemiketal-6,7-seco-16-kaurene-6β-yl bis(2-chloroethyl) carbamate], the half-inhibitory concentration (IC50) was 8.76 ± 1.56 µM in test [1]; 11 ± 1.45 µM in test [2]; 15.6 ± 1.61 µM in test [3]; 30.4 ± 3.44 µM in test [4] (L02, human normal cells, 48 h).
On to `C=C1C(=O)C23C(=O)OC45CCC(C)(C)C6C(OC(=O)CCC(=O)NCc7ccc(OC)cc7)OCC64C2CCC1C3O5` (single isomer, unassigned; ent-6) [Compound 7c, ent-6β,14α-Dihydroxy-(1,7–1,14)-epoxy-7,15-dioxo-6,20-hemiketal-6,7-seco-16-kaurene-6β-yl 4-((4-meth0xybenzyl)amino)-4-oxobutanoate], for which the IC50 in test [1] was 8.37 ± 1.53 µM; in test [2], 12.8 ± 1.73 µM; in test [3], 8.35 ± 1.96 µM; in test [4] (Homo sapiens, L02, 48 h), 34.4 ± 4.37 µM.
As for `CC(=O)O[C@H]1C(=O)[C@@]2(C)[C@H]([C@H](OC(=O)c3ccccc3)[C@]3(O)C[C@H](OC(=O)[C@H](O)[C@@H](NC(=O)c4ccccc4)c4ccccc4)C(C)=C1C3(C)C)[C@]1(OC(C)=O)CO[C@@H]1C[C@@H]2O` [Taxol, reference compound], the IC50 in test [1] stood at 4.21 ± 0.73 µM; in test [2], 6.6 ± 1.61 µM; in test [3], 5.15 ± 0.8 µM; in test [4] (Homo sapiens, L02, 48 h), 8.31 ± 1.82 µM.
Taken in the same sequence, the figures for `C=C1C(=O)C23C(=O)OC45CCC(C)(C)C6C(OC(=O)N(c7ccccc7)c7ccccc7)OCC64C2CCC1C3O5` (single isomer, unassigned; ent-6) [Compound 5j, ent-6β,14α-Dihydroxy-(1,7–1,14)-epoxy-7,15-dioxo-6,20-hemiketal-6,7-seco-16-kaurene-6β-yl diphenylcarbamate] were 23.3 ± 2.25 µM, 34.1 ± 3.52 µM, 32.8 ± 2.95 µM and above 50 µM.
As to `C=C1C(=O)C23C(=O)OC45CCC(C)(C)C6C(OC(=O)N7c8ccccc8Sc8ccccc87)OCC64C2CCC1C3O5` (single isomer, unassigned; ent-6) [Compound 5k, ent-6β,14α-Dihydroxy-(1,7–1,14)-epoxy-7,15-dioxo-6,20-hemiketal-6,7-seco-16-kaurene-6β-yl 10H-phenothiazine-10-carboxylate], the 50% inhibitory concentration (IC50) in test [1] is 17.2 ± 1.43 µM; in test [2], 25.7 ± 2.16 µM; in test [3] it was 26.3 ± 2.3 µM; in test [4] (Homo sapiens, L02, 48 h) it was above 50 µM.
As for `C=C1C(=O)C23C(=O)OC45CCC(C)(C)C6C(OC(=O)CCN7C(=O)c8ccccc8C7=O)OCC64C2CCC1C3O5` (single isomer, unassigned; ent-6) [Compound 5m, ent-6β,14α-Dihydroxy-(1,7–1,14)-epoxy-7,15-dioxo-6,20-hemiketal-6,7-seco-16-kaurene-6β-yl 3-(1,3-dioxoisoindolin-2-yl) propanoate], in test [1] (A549 cells), the “fold better than parental compound 4 (A549 IC50)” value is reported as 3.48 fold. In addition, the half-maximal inhibitory concentration (IC50) worked out at 6.85 ± 1.68 µM in test [1]; 10.9 ± 1.25 µM in test [2]; 12.3 ± 1.11 µM in test [3]; 32.5 ± 1.62 µM in test [4] (Homo sapiens, L02, 48 h).
For `C=C1C(=O)C23C(=O)OC45CCC(C)(C)C6C(OC(=O)N7CCOCC7)OCC64C2CCC1C3O5` (single isomer, unassigned; ent-6) [Compound 5i, ent-6β,14α-Dihydroxy-(1,7–1,14)-epoxy-7,15-dioxo-6,20-hemiketal-6,7-seco-16-kaurene-6β-yl bmorpholine-4-carboxylate], the IC50 is 14.4 ± 1.42 µM in test [1]; 23.7 ± 3.4 µM in test [2]; 25.1 ± 3.34 µM in test [3]; 38.1 ± 2.82 µM in test [4] (Homo sapiens, L02, 48 h).
Consider `C=C1C(=O)[C@]23[C@H](O)[C@H]1CC[C@H]2[C@@]12CO[C@]3(O)[C@@H](O)[C@@H]1C(C)(C)CC[C@@H]2O` [Oridonin, reference compound], for which the IC50 in test [1] turned out to be 21.1 ± 1.58 µM; in test [2] it was 22.6 ± 1.2 µM; in test [3], 18.5 ± 1.37 µM; in test [4] (Homo sapiens, L02, 48 h), 23.6 ± 1.65 µM.
As for `C=C1C(=O)C23C(=O)OC45CCC(C)(C)C6C(OC(=O)CCC(=O)NCc7ccc(F)cc7)OCC64C2CCC1C3O5` (single isomer, unassigned; ent-6) [Compound 7e, ent-6β,14α-Dihydroxy-(1,7–1,14)-epoxy-7,15-dioxo-6,20-hemiketal-6,7-seco-16-kaurene-6β-yl 4-((4-fluorobenzyl)amino)-4-oxobutanoate], the 50% inhibitory concentration (IC50) in test [1] was 7.12 ± 1.52 µM; in test [2] it was 11.6 ± 1.34 µM; in test [3], 9.85 ± 1.53 µM; in test [4] (Homo sapiens, L02, 48 h) it was above 50 µM.
Take `C=C1C(=O)C23C(=O)OC45CCC(C)(C)C6C(OC(=O)CCn7cccc7)OCC64C2CCC1C3O5` (single isomer, unassigned; ent-6) [Compound 5l, ent-6β,14α-Dihydroxy-(1,7–1,14)-epoxy-7,15-dioxo-6,20-hemiketal-6,7-seco-16-kaurene-6β-yl 3-(1H-pyrrol-1-yl) propanoate]: the concentration for half-maximal inhibition (IC50) in test [1] is 8.3 ± 2.55 µM; in test [2], 11.2 ± 1.82 µM; in test [3] it was 15.9 ± 1.9 µM; in test [4] (Homo sapiens, L02, 48 h), above 50 µM.
For the compound `C=C1C(=O)C23C(=O)OC45CCC(C)(C)C6C(O)OCC64C2CCC1C3O5` (single isomer, unassigned; ent-6) [Compound 4, Ent-6β,14α-Dihydroxy-(1,7–1,14)-epoxy-7,15-dioxo-6,20-hemiketal-6,7-seco-16-kaurene], the IC50 worked out at 23.8 ± 1.86 µM in test [1]; 27.4 ± 0.83 µM in test [2]; 25.8 ± 1.14 µM in test [3]; 30.2 ± 1.58 µM in test [4] (Homo sapiens, L02, 48 h).
Take `C=C1C(=O)C23C(=O)OC45CCC(C)(C)C6C(OC(=O)CCC(=O)NCc7ccccc7)OCC64C2CCC1C3O5` (single isomer, unassigned; ent-6) [Compound 7a, ent-6β,14α-Dihydroxy-(1,7–1,14)-epoxy-7,15-dioxo-6,20-hemiketal-6,7-seco-16-kaurene-6β-yl 4-(benzylamino)-4-oxobutanoate]: the IC50 is 10.2 ± 1.1 µM in test [1]; 13.8 ± 2.19 µM in test [2]; 10.8 ± 1.65 µM in test [3]; above 50 µM in test [4] (L02, human normal cells, 48 h).
